Laboratory results: patent US20220233566A1, “NOVEL CARBONATE COMPOUND HAVING PYRROLOPYRIMIDINE SKELETON OR PHARMACEUTICALLY ACCEPTABLE SALT THEREOF” (TAIHO PHARMACEUTICAL CO., LTD., priority 2019, published 2022)

Experiments:
[1] = Presence of prodrug in mouse and absorbency (plasma AUC after oral administration); type: in vivo; conditions: male, Balb/cA, mouse, 17 umol/kg, mice, 17 μmol/kg, administered compound itself in plasma, read-out: AUC0-6hr
Protocol: The dosage amounts of the compounds of Comparative Examples 1 to 5 and Examples 1 to 26 are those (mole/10 mL/kg) shown in Tables. Solutions for administration were prepared with an 0.5% aqueous solutions of HPMC so as to satisfy the dosage amounts.
Note that, the “amount of mole/10 mL/kg” means as follows: for example “10 mmol/10 mL/kg” means that 10 mmol of a test compound per body-weight (1 kg) of a mouse was dispersed or dissolved in a solution (10 mL) for administration. The same applies hereinafter.
The solutions for administration prepared above were orally administered to mice (Balb/cA, male) not fasted each by use of an oral administration sonde.
The mice were anesthetized with isoflurane 0.5, 1, 2, 4 and 6 hours after administration and blood was taken from the facial vein by use of a specific needle (animal lancet) and a heparin-coated hematocrit tube.
The blood sampled was immediately centrifuged (13000 rpm, 2 minutes, 4° C.) to prepare the plasma samples. After proteins were removed from the plasma samples, the concentrations of the test compound in the plasma samples were measured by LC/MS/MS.
The value of “area under the curve” (AUC) of drug concentration in blood versus time was calculated using analysis software such as Phoenix (registered trademark) WinNonlin (registered trademark).
In Table 3, “Comparative Example 1” and “Comparative Example 2” represent the “compound (Br form) of Comparative Example 1” and the “compound (I form) of Comparative Example 2”, respectively. In Table 4, “Comparative Example 6” represents the “compound (C1 form) of Comparative Example 6”.

A549 = assay: Growth suppression activity to human tumor cell line (Evaluation 2); type: cell-based; conditions: A549, 72 h, Human lung cancer, A549, 3 days
Protocol: (§1) Human tumor cell lines different in type were suspended in mediums, seeded in individual wells of a multi-well plate and cultured. On the day after initiation of culture, serially diluted solutions of a compound were added. Culture was carried out for further 3 days. Cells were counted by a CellTiter-Glo (manufactured by Promega KK) in accordance with the protocol recommended by Promega KK. Cell viability was calculated in accordance with the equation shown below and the concentration (IC50 (nM)) of the compound at which 50% of cell growth is inhibited was obtained.
(§2) T: Intensity of light emitted from a well containing a compound
(§3) C: Intensity of light emitted from a well containing no compound

A431 = assay: as above; type: cell-based; conditions: Human epidermoid carcinoma, A431, 3 days
Protocol: as §1, §2, §3

H358 = assay: as above; type: cell-based; conditions: NCI-H358, 72 h, Human lung cancer, H358, 3 days
Protocol: as §1, §2, §3

SK-BR-3 = assay: as above; type: cell-based; conditions: Human breast cancer, SK-BR-3, 3 days
Protocol: as §1, §2, §3

H1703 = assay: Growth suppression activity in human tumor cell line; type: cell-based; conditions: NCI-H1703, 72 h; Human lung cancer, H1703, 3 days
Protocol: (§4) Human tumor cell lines different in type were suspended in mediums, seeded in individual wells of a multi-well plate and cultured. On the day after initiation of culture, serially diluted solutions of a compound were added. Culture was carried out for further 3 days. Cells were counted by a CellTiter-Glo (manufactured by Promega KK) in accordance with the protocol recommended by Promega KK. Cell viability was calculated in accordance with the equation shown below and the concentration (IC50 (μM)) of the compound at which 50% of cell growth is inhibited was obtained.
as §2, §3

MV-4-11 = assay: as above; type: cell-based; conditions: MV4-11, 72 h; Human hematopoietic organ tumor, MV-4-11, 3 days
Protocol: as §4, §2, §3

LN229 = assay: as above; type: cell-based; conditions: LN-229, 72 h; Human brain tumor, LN229, 3 days
Protocol: as §4, §2, §3

H460 = assay: as above; type: cell-based; conditions: NCI-H460, 72 h; Human lung cancer, H460, 3 days
Protocol: as §4, §2, §3

CCRFCEM = assay: as above; type: cell-based; conditions: CCRF-CEM, 72 h, Human hematopoietic organ tumor, 3 days
Protocol: as §4, §2, §3

COL0792 = assay: as above; type: cell-based; conditions: 72 h; Human skin cancer, COL0792, 3 days
Protocol: as §4, §2, §3

H1975 = assay: as above; type: cell-based; conditions: NCI-H1975, 72 h; Human lung cancer, H1975, 3 days
Protocol: as §4, §2, §3

HS746T = assay: as above; type: cell-based; conditions: 72 h, Human stomach cancer, 3 days
Protocol: as §4, §2, §3

DMS273 = assay: as above; type: cell-based; conditions: DMS-273, 72 h; Human lung cancer, DMS273, 3 days
Protocol: as §4, §2, §3

CA9-22 = assay: as above; type: cell-based; conditions: 72 h; Human head and neck cancer, CA9-22, 3 days
Protocol: as §4, §2, §3

H2170 = assay: as above; type: cell-based; conditions: NCI-H2170, 72 h; Human lung cancer, H2170, 3 days
Protocol: as §4, §2, §3

SW48 = assay: as above; type: cell-based; conditions: 72 h; Human colorectal cancer, SW48, 3 days
Protocol: as §4, §2, §3

NUGC3 = assay: as above; type: cell-based; conditions: NUGC-3, 72 h; Human stomach cancer, NUGC3, 3 days
Protocol: as §4, §2, §3

BHL-89 = assay: as above; type: cell-based; conditions: 72 h; Human hematopoietic organ tumor, BHL-89, 3 days
Protocol: as §4, §2, §3

A172 = assay: as above; type: cell-based; conditions: A 172, 72 h; Human brain tumor, A172, 3 days
Protocol: as §4, §2, §3

SDM103T2 = assay: as above; type: cell-based; conditions: 72 h; Human lung cancer, SDM103T2, 3 days
Protocol: as §4, §2, §3

BCP1 = assay: as above; type: cell-based; conditions: BCP-1, 72 h; Human hematopoietic organ tumor, BCP1, 3 days
Protocol: as §4, §2, §3

HT29 = assay: as above; type: cell-based; conditions: HT-29, 72 h; Human colorectal cancer, HT29, 3 days
Protocol: as §4, §2, §3

H69 = assay: as above; type: cell-based; conditions: NCI-H69, 72 h; Human lung cancer, H69, 3 days
Protocol: as §4, §2, §3

`Nc1ncnc2c1c(Br)cn2[C@@H]1O[C@H](CO)[C@@H](O)[C@@H]1F` [Comparative Example 1, (2R,3R,4S,5R)-5-(4-amino-5-bromo-7H-pyrrolo[2,3-d]pyrimidin-7-yl)-4-fluoro-2-(hydroxymethyl) tetrahydrofuran-3-ol] showed an AUC(0-t) [1] of 2.07 µM·h, an IC50 (A549) of 14 nM and an IC50 (A431; Homo sapiens, A-431, 72 h) of 32 nM. The IC50 (A431) was 18 nM, the IC50 (H358) was 52 nM and the IC50 (SK-BR-3; Homo sapiens, SK-BR-3, 72 h) was 26 nM. For the same compound, the IC50 (SK-BR-3) was 23 nM, the IC50 (H1703) was 20 nM and the IC50 (MV-4-11) was 30 nM. It also gave an IC50 (LN229) of 630 nM, an IC50 (H460) of 80 nM and an IC50 (CCRFCEM) of 50 nM. The IC50 (COL0792) was 890 nM, the IC50 (H1975) was 70 nM and the IC50 (HS746T) was 250 nM. The IC50 (DMS273) was 400 nM, the IC50 (CA9-22) was 80 nM and the IC50 (H2170) was 260 nM. It also gave an IC50 (SW48) of 130 nM, an IC50 (NUGC3) of 70 nM and an IC50 (BHL-89) of 230 nM. The IC50 (A172) was 140 nM, the IC50 (SDM103T2) was 580 nM and the IC50 (BCP1) was 110 nM. The IC50 (HT29) was 110 nM and the IC50 (H69) was 110 nM.
